The term inhibition denotes the share of the control response that was lost under treatment. A lower inhibition goes with a response near the control. The % Inhibition is the drop in the measured response relative to a control, in per cent.

Molecules are shown by their SMILES.

A short description of series [1]: plasma protein binding, equilibrium dialysis (dog). In kind it is in vitro ADME. The settings on record: pH 7.4, dog (d), read-out: fu,plasma. As to the method: Plasma protein binding and Brain homogenate binding: Determination of fraction unbound (f u) in plasma was conducted in vitro via equilibrium dialysis using HTDialysis (HTD) membrane plates. The top half of the plate was filled with 100 uL of Dubelco’s Phosphate Buffered Saline, pH 7.4 (DPBS). Compounds were diluted into plasma from each species (5 µM final concentration), which was aliquoted in triplicate to the ‘bottom half’ of the prepared HTD plate wells. The HTD plate was sealed and incubated for 6 hours at 37 °C. Following incubation, each well (both top and bottom halves) were transferred (20 µL) to the corresponding wells of a 96-shallow-well (V-bottom) plate. […]
The unbound fraction (f u) was calculated following the equation below, and mean values for each species were calculated from 3 replicates.
A similar approach was used to determine the degree of brain homogenate binding, which employed the same methodology and procedure with the following modifications: 1) a final compound concentration of 1 μM was used, 2) naïve rat brains were homogenized in DPBS (1:3 composition of brain: DPBS, w/w) using a Mini-Bead Beater™ machine in order to obtain brain homogenate, which was then treated in the same manner as the plasma samples in the previously described plasma protein binding assay. Fraction unbound for both plasma and brain samples was determined using Equation 4. […]
A general note: In equilibrium dialysis only unbound substance equilibrates across the membrane.

The next series deals with CV ion channels. As to the kind of experiment: CV ion channel EP panel. It is filed as cell-based. As to conditions: result in words.
Series [2] is described as follows: satellite IP PK study, brain exposure. In kind it is in vivo. As to conditions: C57Bl6 mice, 30% captisol. The source says: These effects were absent when performed in M1 KO mice, confirming that these AEs are in fact M1-mediated. […] Total brain drug levels correlate better with PD efficacy ,− , versus free drug levels in brain, as the arbitrarily selected EC20 value for the in vitro PAM EC50 potency determination likely underestimates endogenous ACh tone. Thus, there is a significant therapeutic index for PAM 7 from this assay, and robust target-mediated convulsions were not present. To assess peripheral cholinergic toxicity, a modified Irwin neurological battery was performed to score autonomic or somatosensory side effects (Figure ). […] Still, if the dose and exposure required for efficacy afforded the appropriate therapeutic window, then PAM 7 could still advance.

The next series deals with Adrenergic α1B (Homo sapiens, UniProt P35368). Description: Eurofins radioligand binding.
Sequence of Adrenergic α1B (P35368 whole entry): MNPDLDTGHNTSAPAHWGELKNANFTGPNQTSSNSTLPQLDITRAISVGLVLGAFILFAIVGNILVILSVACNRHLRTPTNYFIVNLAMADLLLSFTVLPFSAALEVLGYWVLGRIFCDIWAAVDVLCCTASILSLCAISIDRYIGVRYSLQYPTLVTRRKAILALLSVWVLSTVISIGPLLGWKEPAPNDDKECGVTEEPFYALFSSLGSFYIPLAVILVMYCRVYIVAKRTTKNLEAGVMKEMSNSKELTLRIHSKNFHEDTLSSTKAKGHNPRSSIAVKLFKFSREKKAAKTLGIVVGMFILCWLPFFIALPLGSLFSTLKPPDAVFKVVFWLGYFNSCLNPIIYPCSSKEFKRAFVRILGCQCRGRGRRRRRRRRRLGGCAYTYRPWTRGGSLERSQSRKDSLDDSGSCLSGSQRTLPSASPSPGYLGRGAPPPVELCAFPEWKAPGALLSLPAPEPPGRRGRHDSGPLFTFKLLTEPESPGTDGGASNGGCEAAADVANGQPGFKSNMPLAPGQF
The next series has as its target Adrenergic α1D (Homo sapiens, UniProt P25100). Description: Eurofins radioligand binding.
A further series concerns Glutamate, Kainate. As to the kind of experiment: Eurofins radioligand binding. As to conditions: Rat.
The target in a further series is Tachykinin NK1 (Homo sapiens, UniProt P25103). Description: Eurofins radioligand binding.
Sequence of Tachykinin NK1 (P25103 whole entry): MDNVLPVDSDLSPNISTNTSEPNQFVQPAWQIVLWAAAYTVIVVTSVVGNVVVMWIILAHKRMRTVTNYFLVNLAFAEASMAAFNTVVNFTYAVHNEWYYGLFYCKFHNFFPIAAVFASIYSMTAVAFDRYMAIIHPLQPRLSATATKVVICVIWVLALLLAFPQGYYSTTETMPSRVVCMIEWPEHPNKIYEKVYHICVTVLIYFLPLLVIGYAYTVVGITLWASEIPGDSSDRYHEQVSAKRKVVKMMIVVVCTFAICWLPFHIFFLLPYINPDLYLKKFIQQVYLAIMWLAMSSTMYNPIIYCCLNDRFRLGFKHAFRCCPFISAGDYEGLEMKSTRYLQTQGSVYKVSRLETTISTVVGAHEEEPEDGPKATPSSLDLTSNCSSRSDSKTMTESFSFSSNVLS

Sequence of Adrenergic α1D (P25100 whole entry): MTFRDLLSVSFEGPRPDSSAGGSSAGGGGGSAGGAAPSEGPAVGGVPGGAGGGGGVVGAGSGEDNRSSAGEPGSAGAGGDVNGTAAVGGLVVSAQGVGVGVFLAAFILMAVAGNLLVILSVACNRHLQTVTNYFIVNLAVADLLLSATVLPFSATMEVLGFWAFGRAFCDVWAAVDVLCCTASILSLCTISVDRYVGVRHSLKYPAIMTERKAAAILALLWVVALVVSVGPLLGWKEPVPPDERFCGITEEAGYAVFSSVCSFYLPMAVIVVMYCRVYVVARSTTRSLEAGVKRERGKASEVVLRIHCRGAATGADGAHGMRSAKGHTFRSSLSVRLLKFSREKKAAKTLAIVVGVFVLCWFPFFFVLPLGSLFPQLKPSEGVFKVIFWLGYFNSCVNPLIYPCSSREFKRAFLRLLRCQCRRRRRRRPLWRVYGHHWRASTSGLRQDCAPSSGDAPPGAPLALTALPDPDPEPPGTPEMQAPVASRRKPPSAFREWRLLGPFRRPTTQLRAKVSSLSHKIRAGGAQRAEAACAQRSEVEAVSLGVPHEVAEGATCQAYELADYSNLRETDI

In the case of `Cn1cc2c(-c3cc(F)c(CN4Cc5ncccc5C4=O)c(F)c3)ccc(C(C)(C)O)c2n1` [compound 7], the fraction unbound at 6 h, 5 µM in series [1] was found to be 0.117. In the series with CV ion channels, the “activity in CV ion channel EP panel” value is recorded as “no significant activities”. Moreover, the total brain exposure in series [2] (56.6 mg/kg IP) worked out at 29.8 µM; in series [2] (100 mg/kg IP), 42.2 µM. Besides, the inhibition at 10 µM at Adrenergic α1B worked out at 8%; at Adrenergic α1D, 11%; at Tachykinin NK1, 4%. In the series with Glutamate, Kainate, the “% Inhibition at 10 µM” value was -2%.

The record behind these values is publication PMC12715762, “Discovery of VU6052254: A Novel, Potent M1 Positive Allosteric Modulator” (ACS Chemical Neuroscience, 2025).
